This note sets out measurements from PubChem BioAssay AID179 (DTP/NCI, 2004).

Calls of active or inactive are those of the source.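 Rule for the calls: active = compounds giving half or more protection of infected cells from virus-caused growth loss, again on retest; inactive = the rest.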 Some results are limits rather than exact numbers.

The test has as its system CEM cells HIV-1 protection, formazan growth assay. Nature of the test: NCI AIDS Antiviral Assay. As to conditions: for IC50: measured here: growth of uninfected CEM cells. The essentials:
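Screen of anti-HIV-1 activity in human CEM cells using a formazan-based growth measurement at five drug concentrations. Hits with 50% or greater protection were repeated, and confirmation required reproducible complete protection.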

As for `CN(C)CCCNc1ccc2c(=O)n(CCN(C)C)c(=O)n3c4ccccc4c(=O)c1c23`, the EC50 is greater than 0.2 µM and the 50% inhibitory concentration (IC50) amounted to 0.0776 µM.

With `O=C1C(=O)N(c2ccc(Cl)cc2Cl)C(=O)C(=O)C1c1nc2ccccc2s1`, the EC50 was greater than 85.1 µM and the 50% inhibitory concentration (IC50) is greater than 85.1 µM.

Regarding `NC(=O)COc1c(Br)cc(Br)cc1Br`, the EC50 was greater than 34.7 µM and the IC50 is greater than 34.7 µM.

On to `COP(=O)(OC)/C(=C\c1cn(C(c2ccccc2)(c2ccccc2)c2ccccc2)cn1)NC(C)=O`, for which the EC50 is greater than 200 µM and the IC50 was found to be 83.2 µM.

On to `O=C(O)c1c2c(cc3c(=O)cc(-c4ccccc4)oc13)CCCC2`, for which the result was inactive.

For `O=C(Nc1ccc(S(=O)(=O)Nc2nccs2)cc1)c1cccnc1Nc1cccc(Cl)c1`, the result was inactive.

On to `S=C1Nc2cnc3ccccc3c2SC1c1ccccc1` (configuration not stated), for which the EC50 is greater than 200 µM and the half-maximal inhibitory concentration (IC50) was found to be 56.2 µM.

As for `COC(=O)C(CCS(=O)(=O)CC(=O)C(=O)Nc1cccc(C(C)=O)c1)C(=O)OC`, the outcome was inactive.

With `COc1cccc(C2c3cc4c(cc3OC(O)C2C)OCO4)c1OC` (configuration not stated), the EC50 is greater than 200 µM and the concentration for half-maximal inhibition (IC50) worked out at 1.51 µM.

As to `c1ccc(Oc2cccc(Oc3ccc4c(c3)-c3nc-4nc4[nH]c(nc5nc(nc6[nH]c(n3)c3ccc(Oc7cccc(Oc8ccccc8)c7)cc63)-c3cc(Oc6cccc(Oc7ccccc7)c6)ccc3-5)c3ccc(Oc5cccc(Oc6ccccc6)c5)cc43)c2)cc1`, the EC50 is greater than 3.02 µM and the IC50 is greater than 3.02 µM.

Take `CCC/C(Cl)=N\OC(=O)Nc1ccc(F)c([N+](=O)[O-])c1`: the EC50 was greater than 200 µM and the IC50 came out at 9.12 µM.

`CCOC(=O)CCC(NC(=O)c1ccc(OCc2ccc3nc(OC)c(OC)nc3c2)cc1)C(=O)OCC` (configuration not stated): the EC50 was greater than 200 µM and the IC50 came to 41.7 µM.

As to `CCOC(=O)C(N=O)C(=O)c1ccccc1` (configuration not stated), the outcome was inactive.

Regarding `COC1OC(C(=O)O)C2OC(C)(C)OC12` (configuration not stated), the EC50 was greater than 200 µM and the IC50 was greater than 200 µM.

As to `CC(=O)OCC1OC(NC(=S)CCSc2nc3ccccc3c(=O)n2-c2ccccc2)C(OC(C)=O)C(OC(C)=O)C1OC(C)=O` (configuration not stated), the EC50 is greater than 200 µM and the IC50 was 28.2 µM.

On to `CCOC(=O)CC1(N)CC2c3ccccc3OC(=O)C2C(=O)N1` (configuration not stated), for which the EC50 was greater than 200 µM and the 50% inhibitory concentration (IC50) was greater than 200 µM.

On to `Cc1ccc(S(=O)c2cccs2)cc1` (configuration not stated), for which the EC50 was greater than 1120 µM and the IC50 was 182 µM.

With `CN(O)C(=O)c1ccccc1`, the EC50 was greater than 1660 µM and the IC50 was found to be 1380 µM.

Regarding `O=C(ON(Cc1ccccc1)C(=O)C1C=CC=C1)C1=CCC=C1`, the EC50 is greater than 17 µM and the IC50 was greater than 17 µM.

As for `OCC1NCC(O)C(O)C1O` (configuration not stated), the EC50 is greater than 200 µM and the IC50 was greater than 200 µM.

For `O=S1OCC2(CO1)COS(=O)OC2` (configuration not stated), the EC50 is greater than 200 µM and the half-inhibitory concentration (IC50) stood at 91.2 µM.

In the case of `Cc1ccc(SCC(CF)OCn2cc(F)c(=O)[nH]c2=O)cc1` (configuration not stated), the EC50 is greater than 200 µM and the IC50 amounted to 123 µM.

As for `COCc1cn(C2CC(F)C(CO)O2)c(=O)nc1N` (configuration not stated), the EC50 was greater than 457 µM and the IC50 was greater than 457 µM.

With `COc1cccc2c1OC1(N3CCOCC3)CCCCC1C2C[N+](=O)[O-]` (configuration not stated), the EC50 was greater than 200 µM and the 50% inhibitory concentration (IC50) is greater than 200 µM.

Consider `O=C(Cc1nc2ccccc2s1)C(=O)Nc1cccc(Cl)c1`, for which the outcome was inactive.

`Cc1ccc(S(=O)(=O)N/N=C2\CCC3(O)CC2(C)CCC2C3CC2(C)C)cc1` (configuration not stated): the half-maximal effective concentration (EC50) was 28.2 µM and the IC50 was found to be 51.3 µM.

For the molecule `CON1C(=O)C(c2cccs2)=C2SCC=C21`, the EC50 was greater than 170 µM and the IC50 was 4.27 µM.

As for `COc1ccc(/C=C2\CSC/C(=C\c3ccc(OC)c(OC)c3OC)C2=O)c(OC)c1OC`, the EC50 is greater than 200 µM and the IC50 amounted to 15.5 µM.

With `COC(=O)C1C(C(=O)OC)C2C(=O)C3C(C(=O)OC)C(C(=O)OC)C3C(=O)C12` (configuration not stated), the EC50 was greater than 91.2 µM and the concentration for half-maximal inhibition (IC50) was greater than 91.2 µM.

In the case of `CCOC(=O)Cc1csc2[n+]1C(=O)/C(=C/c1cccc(OC)c1O)S2`, the EC50 was greater than 200 µM and the 50% inhibitory concentration (IC50) stood at 174 µM.

Turning to `CCOC1=C(c2ccccc2)Oc2cccnc2-n2cccc21`, the EC50 is greater than 200 µM and the IC50 was found to be 138 µM.

As to `O=C(O)CN(CCN(CC(=O)O)CC(=O)O)CC(=O)O.[Cu+2].[Na+]`, the EC50 is greater than 200 µM and the IC50 was 8.91 µM.

Take `Clc1cc2nnn(C3CCCO3)c2cc1Cl` (configuration not stated): the EC50 is greater than 200 µM and the IC50 amounted to 123 µM.

`CC(=N/NC(=S)N1CCCCCC1)/C(C)=N\NC(=S)N1CCCCCC1`: the EC50 was greater than 100 µM and the IC50 worked out at 8.71 µM.

For the molecule `CCCCNCc1cc(S(=O)(=O)N2CCCCC2)c2cccnc2c1O`, the EC50 was greater than 47.9 µM and the half-maximal inhibitory concentration (IC50) is 8.91 µM.

Take `C=C(C)C(=O)N1c2ccc(OC)cc2CC1C(=O)OCC` (configuration not stated): the EC50 is greater than 200 µM and the IC50 is greater than 200 µM.

Regarding `O=C(NC(=O)c1cn(CCNCCO)c(=O)[nH]c1=O)OCc1ccccc1`, the result was inactive.

On to `Cc1ccc2c(c1)[nH]c(=S)n2C=C(C#N)C#N`, for which the EC50 is greater than 200 µM and the IC50 is greater than 200 µM.

With `C=C(C)[C@H]1C2=CC(C(=O)OC)=C(C[C@H](C(=C)C)[C@H]3O[C@H]3C3=C[C@H]1OC3=O)O2`, the EC50 was greater than 200 µM and the IC50 worked out at 1.62 µM.

Turning to `CC(Oc1ccc2c(-c3ccc(Cl)cc3)cc(=O)oc2c1)C(=O)O` (configuration not stated), the result was inactive.

On to `CCOP(=O)(/N=C1/C2CCC(C2)C1C)OCC` (configuration not stated), for which the EC50 is greater than 234 µM and the IC50 was greater than 234 µM.

Take `O=S1c2ccccc2-c2ccccc21`: the EC50 is greater than 447 µM and the half-inhibitory concentration (IC50) was greater than 447 µM.

Turning to `CCOC(=O)Cc1nc2cc(F)c(F)cc2[nH]c1=O`, the EC50 is greater than 200 µM and the IC50 is greater than 200 µM.

Turning to `O=C1/C(=C\c2ccccc2Cl)CCCC/C1=C\c1ccccc1Cl`, the EC50 was greater than 200 µM and the half-inhibitory concentration (IC50) amounted to 166 µM.

For the molecule `Cc1cc(=O)c2c(o1)-c1ccccc1C(c1ccccc1)c1ccccc1-2` (configuration not stated), the EC50 is 1.51 µM and the half-inhibitory concentration (IC50) amounted to 25.1 µM.

Take `Cc1cc2nnc(-c3cccc([N+](=O)[O-])c3)n2c2nnnn12`: the EC50 was greater than 200 µM and the IC50 was greater than 200 µM.

Turning to `CCOC(=O)c1cc(-c2ccn(C(C)=O)c2)c(-c2cc(C)co2)[nH]1`, the EC50 was 18.2 µM and the IC50 was greater than 200 µM.

`CCOP(=O)(OCC)/C(=C/c1ccccc1)CC(C)=O`: the EC50 is greater than 200 µM and the IC50 stood at 148 µM.

Turning to `COc1ccc(/C=C2N=C(/C=C/c3ccccc3)OC\2=O)cc1OC`, the EC50 was 11 µM and the IC50 amounted to 97.7 µM.

Consider `N#Cc1nn(C2OC(COC(=O)c3ccccc3)C(OC(=O)c3ccccc3)C2OC(=O)c2ccccc2)c2nc[nH]c(=O)c12` (configuration not stated), for which the EC50 is greater than 200 µM and the IC50 was found to be 74.1 µM.

On to `COC(=O)C1C(=O)CC2C(C(=O)OC)C(=O)CC12` (configuration not stated), for which the EC50 was greater than 234 µM and the IC50 amounted to 105 µM.

On to `COC(O)C(=O)c1ccc2c(c1)CC1(C2)Cc2cc3c(cc2C1=O)CCC3` (configuration not stated), for which the EC50 is greater than 200 µM and the IC50 was 32.4 µM.

In the case of `O=C(CC1(O)C(=O)Nc2ccc([N+](=O)[O-])cc21)c1ccc2ccccc2c1` (configuration not stated), the EC50 is greater than 100 µM and the IC50 was greater than 100 µM.

With `Nc1ccc2c(c1)C(N)c1ccccc1-2` (configuration not stated), the EC50 is greater than 200 µM and the IC50 was determined as 55 µM.

On to `COc1ccc2oc(OC)c(CC=C(C)C)c(=O)c2c1C`, for which the EC50 was greater than 200 µM and the half-maximal inhibitory concentration (IC50) worked out at 141 µM.

Regarding `CCCCCCCCCCCCCCCCOCC(COC1OC(CS(=O)(=O)O)C(O)C(O)C1O)OCCCCCCCCCCCCCCCC` (configuration not stated), the EC50 is 100 µM and the 50% inhibitory concentration (IC50) was determined as 123 µM.

Turning to `COC(=O)C1Cc2c([nH]c3ccccc23)C(c2ccccc2O)N1Cc1ccccc1` (configuration not stated), the outcome was inactive.

On to `CC(C)c1ccc(/C=C(\NC(=O)c2ccccc2)c2nc3ccccc3[nH]2)cc1`, for which the EC50 was greater than 49 µM and the IC50 was greater than 49 µM.

Regarding `O=C1c2nn(-c3ccccc3)nc2C(c2ccccc2)N1c1ccccc1` (configuration not stated), the EC50 was greater than 14.8 µM and the IC50 is greater than 14.8 µM.

As for `COc1ccc(-n2c(=O)n(C)c(=O)n2-c2c(C)c(C)c(C)c(C)c2C)cc1`, the EC50 is greater than 100 µM and the IC50 was 18.6 µM.

For `CC(=O)[CH-]C(C)=O.[CH2-]C.[CH2-]C.[Tl+3]`, the EC50 is greater than 501 µM and the 50% inhibitory concentration (IC50) is greater than 501 µM.

With `COc1cccc(N(CN2C(=O)CCC2C(=O)O)C(C)=O)c1` (configuration not stated), the result was inactive.

Regarding `N=c1c2ccccc2nnn1-c1ccccc1[N+](=O)[O-]`, the outcome was inactive.

For the molecule `COc1cccc(/C=C2\CCCCCC2=O)c1`, the EC50 was greater than 200 µM and the IC50 turned out to be 40.7 µM.

Take `CCOC(=O)C(Cc1cn(S(=O)(=O)c2ccc(C)cc2)cn1)P(=O)(OCC)OCC` (configuration not stated): the EC50 was greater than 200 µM and the 50% inhibitory concentration (IC50) is greater than 200 µM.

For `Cc1ccc(-c2c(C#N)c(-c3ccccc3)n(NS(=O)(=O)c3ccc(C)cc3)c(=O)c2C#N)cc1`, the EC50 was greater than 200 µM and the half-maximal inhibitory concentration (IC50) worked out at 67.6 µM.

For `OCC[N+]12CCCN1CCC2`, the EC50 is greater than 1050 µM and the half-maximal inhibitory concentration (IC50) is greater than 1050 µM.

Regarding `Cc1cc(=O)c(C#N)c(C)s1`, the EC50 was greater than 200 µM and the concentration for half-maximal inhibition (IC50) was greater than 200 µM.

In the case of `C[C@@H]1C2(O)CC34CC(=O)OC3(C[C@@H](O)[C@H]4C)C1(C)CO2` (some centres not stated), the EC50 was greater than 891 µM and the half-maximal inhibitory concentration (IC50) was greater than 891 µM.

Consider `CCCCCC[N+](C)(C)Cc1ccc(C[N+](C)(C)CCCCCC)cc1`, for which the result was inactive.

Take `O=C(NCc1ccc(O)cc1O)c1ccccc1O`: the EC50 is greater than 200 µM and the half-maximal inhibitory concentration (IC50) amounted to 138 µM.

With `c1ccc(COc2ncccc2C2SCCCS2)cc1`, the EC50 was greater than 200 µM and the IC50 is greater than 200 µM.

Take `COc1c(O)ccc2oc3cccc(O)c3c(=O)c12`: the EC50 is greater than 200 µM and the IC50 is 110 µM.

Turning to `COc1cc2cc(OC(C)=O)c3cc4c(cc3c2c(OC)c1OC)OCO4`, the EC50 is greater than 676 µM and the IC50 was greater than 676 µM.
